# Results taken from patent publication US4551460A, “Pyrido[2,1-b]quinazoline derivatives useful as agents for treatment of allergic conditions and vascular disorders involving thrombosis” (priority 1983, dated 1985).
# Experiments:
# [1] = tested on: histamine-induced bronchoconstriction; assay: Antagonism of histamine-induced bronchoconstriction in guinea pigs; type: in vivo, guinea pig (Hartley strain); conditions: Cavia porcellus, po, 2 hour pretreatment; read-out: ID50 antagonism of histamine-induced bronchoconstriction
# Method: (g) Antagonism of PAF and Histamine-induced Bronchoconstriction in Guinea Pig
# Spontaneously breathing male guinea pigs (Hartley strain) weighing 300-450 grams are dosed orally with test drug or control vehicle two hours prior to challenge with agonist. The animals are anesthetized with urethane (2 gm/kg) intraperitoneally and the jugular vein and trachea are cannulated. Two hours after dosing, the animal is paralyzed with succinylcholine (1.2 mg/kg, i.v.) and ventilated (Harvard rodent respirator) at 40 breaths/minutes and 2.5 cc tidal volume. Propranolol (0.1 mg/kg, i.v.) is administered and five minutes thereafter the animal is challenged with a constrictory dose of platelet activating factor (10 μg/kg, i.v.) or histamine dihydrochloride (20 μg/kg, i.v.). The change (cm H2 O) between pre and peak ventilatory pressure readings is averaged for three control animals and five drug treated animals. The percent inhibition is calculated from the following formula: (Control-Drug Treated/Control)×100.
# [2] = tested on: PAF induced mortality; assay: Prevention of mortality induced by platelet aggregating factor (PAF); type: in vivo, mice (CF1); conditions: PAF 0.10 mg/kg i.v.
# Method: (k) Prevention of Mortality Induced by Platelet Aggregating Factor (PAF)
# Male CF1 mice weighing 20-30 gms (Carworth Farms Co.) are fed ad libitum.
# Racemic 2-[[[2-(acetyloxy)-3-(octadecyloxy)propoxy]hydroxyphosphinyl]oxy]-N,N,N-trimethylethanaminium hydroxide inner salt hemihydrate (PAF) is concentrated in ethanol at a concentration of 1 mg/ml.At the time of experimentation, PAF is diluted in 0.1% BSA (bovine serum albumin) and administered intravenously at a dose of 0.10 mg/kg one hour after 10 mice are dosed with either vehicle (BSA) or drug. Mortality in mice treated with PAF occurs within 30 minutes after i.v. administration.
smiles,measurement,setting,value
"CC(C)c1ccc2nc3ccc(C(=O)NCCCCn4ccnc4)cn3c(=O)c2c1 [Compound A, N-[4-(1H-imidazol-1-yl)butyl]-2-(1-methylethyl)-11-oxo-11H-pyrido[2,1-b]quinazoline-8-carboxamide]",ED50,[1],39 mg/kg
"CC(C)c1ccc2nc3ccc(C(=O)NCCCCCCc4cccnc4)cn3c(=O)c2c1 [Compound C, 2-(1-Methylethyl)-N-[6-(3-pyridyl)hexyl]-11-oxo-11H-pyrido[2,1-b]quinazoline-8-carboxamide]",ED50,"[2]; Mus musculus, Platelet, oral, read-out: oral ID50 (Inhibiting Dose), PAF induced mortality",13 mg/kg
same,prevention of PAF induced mortality,[2],prevented PAF induced mortality
